Results on eleven molecules are retold here after patent US4122179A, “Acid addition salts of vincamine and apovincamine” (priority 1976, dated 1978).

Counter-ions that a name gives are not always drawn.

System in one data set: not listed separately
Put plainly: Hematic levels at different times after oral administration (absorption). The note with it: 100 mg/kg expressed as vincamine/apovincamine, 5% carboxymethyl cellulose suspension, 100 mg/kg. The class given is in vivo, Wistar rat. Here is the method: (§1) For the compounds of the present invention a number of pharmacological and pharmacokinetic tests have been carried out. […] As regards the pharmacological and pharmacodynamic activity, it has been studied on the percent variations of the hematic flow, as recorded at the vertebral arteria in the dog after administration of the tested compounds. As regards the pharmacokinetic tests, the compounds were administered per oral route to the Wistar rat, and the hematic levels at different times from the administration were measured.
For the evaluation of the absorption, all the compounds have been orally administered at the dosage of 100 mg/kg, expressed as vincamine and apovincamine, in form of a suspension in a 5% carboxymethyl cellulose solution.
The absorption was determined by evaulating the hematic levels at the following times (minutes) : 0, 30, 120, 240, 480, 10 hours and 12 hours, in order also to assess the time from the administration (max conc.time) the maximum absorption occurred.
The vincamine and apovincamine concentrations were assessed by chromatographic method.
For the evaluation of the prolonged action of the salts and of the adducts of vincamine and apovincamine the following criterium was adopted; as derivatives having a long-acting effect, there are considered those which, 120 minutes after the administration, show hematic levels higher than those obtained with vincamine and apovincamine.
`CC[C@@]12C=C(C(=O)OC)n3c4c(c5ccccc53)CCN(CCC1)[C@H]42` [Example 25.b, Apovincamine (D,L)-mandelate] showed a Max. conc. time of 120 min.
Still for that read-out and setting: as for `CC[C@@]12C=C(C(=O)OC)n3c4c(c5ccccc53)CCN(CCC1)[C@H]42` [Apovincamine, apovincamine], the figure is 60 min; as for `CC[C@]12CCCN3CCc4c(n(c5ccccc45)[C@@](O)(C(=O)OC)C1)[C@@H]32` [Example 15.a, nicotinate], 60 min.
Still for that read-out and setting: as for glucose-6-phosphate [Example 3.c], the figure is 240 min; as for `CC[C@@]12C=C(C(=O)OC)n3c4c(c5ccccc53)CCN(CCC1)[C@H]42` [Example 12.b, Apovincamine furoate], 240 min.
The molecule glucose-6-phosphate [Example 3.d] gave a Max. conc. time of 120 min.

Still in this data set, the particulars now being: 100 mg/kg expressed as vincamine/apovincamine, 5% carboxymethyl cellulose suspension, HCl, 100 mg/kg.
`CC[C@]12CCCN3CCc4c(n(c5ccccc45)[C@@](O)(C(=O)OC)C1)[C@@H]32` [Vincamine HCl, reference compound] had a Max. conc. time of 20 min.

Staying with this data set, now noted: 100 mg/kg expressed as vincamine/apovincamine, 5% carboxymethyl cellulose suspension, disodium, 100 mg/kg.
Turning to “glucose-6-phosphate disodium [Example 1.c]”, the Max. conc. time amounted to 480 min.
The same measure, in the same setting: with “glucose-6-phosphate disodium [Example 1.d]” the figure was 120 min.

The data set is the same for the next values; noted with them: rat, blood, po, 100 mg/kg, 100 mg/kg expressed as vincamine/apovincamine, 5% carboxymethyl cellulose suspension, read-out: Max. conc. time (converted).
For the molecule `CC[C@@]12C=C(C(=O)OC)n3c4c(c5ccccc53)CC[N+](C)(CCC1)[C@H]42` (some centres unmarked) [Example 17.b, Apovincamine methylsulfate], the Tmax was 1 h.
Same read-out and setting: with `CC[C@]12CCC[N+]3(C)CCc4c(n(c5ccccc45)[C@@](O)(C(=O)OC)C1)[C@H]23` (some centres unmarked) [Example 17.a, Vincamine methylsulfate] the figure was 1 h.

Another data set concerns vertebral arteria. As to the kind of experiment: Cerebral vasodilating activity: hematic flow at the vertebral arteria after i.v. administration. It is filed as in vivo. The conditions noted are these: i.v. (femoral vein), 5 mg/kg of vincamine/apovincamine, anesthetized dog, 4 animals per compound. As for the experimental part:
as §1
The cerebral vasodilating activity was studied in the anestetized dog, by measuring, by means of Statham periarterial electromagnetic flowmeters, the hematic flow at the level of the […] which, in such animal species, constitutes the greatest blood supply to the brain.
The resuls are reported in the TABLE 2 (last column) as the percent variations of the flow measured at the level of the ledt vertebral arteria after the i.v. administration of the several compounds to be tested to groups of 4 animals for each compound. The results also confirm that the compounds of the invention are all endowed with a vasodilating activity at the level of the cerebral circulus, such an action being, for some compounds, much more remarkable than that of vincamine and apovincamine.
Take `CC[C@@]12C=C(C(=O)OC)n3c4c(c5ccccc53)CC[N+](C)(CCC1)[C@H]42` (some centres unmarked) [Example 17.b, Apovincamine methylsulfate]: the “% increase (percent variation of hematic flow, left vertebral arteria)” value is 29.7%.
The same measure, in the same setting: with `CC[C@]12CCC[N+]3(C)CCc4c(n(c5ccccc45)[C@@](O)(C(=O)OC)C1)[C@H]23` (some centres unmarked) [Example 17.a, Vincamine methylsulfate] the figure was 28.4%.

The same data set, now with this note: i.v. (femoral vein), 5 mg/kg of vincamine/apovincamine, anesthetized dog, 4 animals per compound; 5 mg/kg.
Consider `CC[C@@]12C=C(C(=O)OC)n3c4c(c5ccccc53)CCN(CCC1)[C@H]42` [Example 25.b, Apovincamine (D,L)-mandelate], for which the “% increase (percent variation of hematic flow, left vertebral arteria)” value was 34.5%.
Take `CC[C@@]12C=C(C(=O)OC)n3c4c(c5ccccc53)CCN(CCC1)[C@H]42` [Apovincamine, apovincamine]: the “% increase (percent variation of hematic flow, left vertebral arteria)” value worked out at 25.6%.
Turning to `CC[C@]12CCCN3CCc4c(n(c5ccccc45)[C@@](O)(C(=O)OC)C1)[C@@H]32` [Example 15.a, nicotinate], the “% increase (percent variation of hematic flow, left vertebral arteria)” value was 21.9%.
On the same count and under the same terms, with glucose-6-phosphate [Example 3.c] the figure was 28.4%.
Still for that read-out and setting: as for `CC[C@@]12C=C(C(=O)OC)n3c4c(c5ccccc53)CCN(CCC1)[C@H]42` [Example 12.b, Apovincamine furoate], the figure is 24.0%; as for glucose-6-phosphate [Example 3.d], 28.8%.

The data set is the same for the next values; noted with them: i.v. (femoral vein), 5 mg/kg of vincamine/apovincamine, anesthetized dog, 4 animals per compound; HCl, 5 mg/kg.
In the case of `CC[C@]12CCCN3CCc4c(n(c5ccccc45)[C@@](O)(C(=O)OC)C1)[C@@H]32` [Vincamine HCl, reference compound], the “% increase (percent variation of hematic flow, left vertebral arteria)” value is recorded as 24.1%.

Still in this data set, the particulars now being: i.v. (femoral vein), 5 mg/kg of vincamine/apovincamine, anesthetized dog, 4 animals per compound; disodium, 5 mg/kg.
For “glucose-6-phosphate disodium [Example 1.c]”, the “% increase (percent variation of hematic flow, left vertebral arteria)” value is on record as 26.3%.
Still for that read-out and setting: as for “glucose-6-phosphate disodium [Example 1.d]”, the figure is 29.3%.

System in another data set: not listed separately
As to the kind of experiment: Solubility. The class given is physicochemical. The conditions noted are these: alcohol (ethyl alcohol); qualitative.
`CC[C@@]12C=C(C(=O)OC)n3c4c(c5ccccc53)CC[N+](C)(CCC1)[C@H]42` (some centres unmarked) [Example 17.b, Apovincamine methylsulfate]: the solubility in alcohol result is on record as “poorly soluble”.
On the same count and under the same terms, with `CC[C@@]12C=C(C(=O)OC)n3c4c(c5ccccc53)CCN(CCC1)[C@H]42` [Example 25.b, Apovincamine (D,L)-mandelate] the entry was “soluble”.
Still for that read-out and setting: with `CC[C@]12CCC[N+]3(C)CCc4c(n(c5ccccc45)[C@@](O)(C(=O)OC)C1)[C@H]23` (some centres unmarked) [Example 17.a, Vincamine methylsulfate] the entry was “soluble”; with `CC[C@@]12C=C(C(=O)OC)n3c4c(c5ccccc53)CCN(CCC1)[C@H]42` [Example 12.b, Apovincamine furoate], “soluble”.

The data set is the same for the next values; noted with them: water; qualitative.
As for `CC[C@@]12C=C(C(=O)OC)n3c4c(c5ccccc53)CC[N+](C)(CCC1)[C@H]42` (some centres unmarked) [Example 17.b, Apovincamine methylsulfate], the solubility in water entry is reported as “soluble”.
On the same count and under the same terms, as for `CC[C@@]12C=C(C(=O)OC)n3c4c(c5ccccc53)CCN(CCC1)[C@H]42` [Example 25.b, Apovincamine (D,L)-mandelate], the entry is “insoluble”; as for `CC[C@]12CCC[N+]3(C)CCc4c(n(c5ccccc45)[C@@](O)(C(=O)OC)C1)[C@H]23` (some centres unmarked) [Example 17.a, Vincamine methylsulfate], “soluble”; as for `CC[C@@]12C=C(C(=O)OC)n3c4c(c5ccccc53)CCN(CCC1)[C@H]42` [Example 12.b, Apovincamine furoate], “insoluble”.

System in another data set: not listed separately
Put plainly: LD50 / acute toxicity, intraperitoneal route. The note with it: i.p. It is filed as in vivo.
The term LD50 denotes the dose expected to kill half of the subjects tested. In the case of “glucose-6-phosphate disodium [Example 1.c]”, the LD50 worked out at 2000 mg/kg.
In the case of `CC[C@@]12C=C(C(=O)OC)n3c4c(c5ccccc53)CCN(CCC1)[C@H]42` [Apovincamine, apovincamine], the LD50 is listed as 2000 mg/kg.
Regarding `CC[C@]12CCCN3CCc4c(n(c5ccccc45)[C@@](O)(C(=O)OC)C1)[C@@H]32` [Example 15.a, nicotinate], the LD50 is reported as 900 mg/kg.
For the molecule glucose-6-phosphate [Example 3.c], the 50% lethal dose (LD50) is on record as 1000 mg/kg.
The same measure, in the same setting: with “glucose-6-phosphate disodium [Example 1.d]” the figure was 2000 mg/kg.
For the molecule glucose-6-phosphate [Example 3.d], the LD50 is 900 mg/kg.

The data set is the same for the next values; noted with them: i.p.; Gleason class in words, classes not defined.
Regarding “glucose-6-phosphate disodium [Example 1.c]”, the “Toxicity (Gleason)” value was “negligible”.
Turning to `CC[C@@]12C=C(C(=O)OC)n3c4c(c5ccccc53)CCN(CCC1)[C@H]42` [Apovincamine, apovincamine], the “Toxicity (Gleason)” value is listed as “negligible”.
Same read-out and setting: as for `CC[C@]12CCCN3CCc4c(n(c5ccccc45)[C@@](O)(C(=O)OC)C1)[C@@H]32` [Example 15.a, nicotinate], the entry is “modest”; as for glucose-6-phosphate [Example 3.c], “light”; as for “glucose-6-phosphate disodium [Example 1.d]”, “negligible”.
Still for that read-out and setting: with glucose-6-phosphate [Example 3.d] the entry was “modest”.

Still in this data set, the particulars now being: i.p.; Gleason class in words, classes not defined; HCl.
For `CC[C@]12CCCN3CCc4c(n(c5ccccc45)[C@@](O)(C(=O)OC)C1)[C@@H]32` [Vincamine HCl, reference compound], the “Toxicity (Gleason)” value is given as “modest”.

Staying with this data set, now noted: i.p.; HCl.
Regarding `CC[C@]12CCCN3CCc4c(n(c5ccccc45)[C@@](O)(C(=O)OC)C1)[C@@H]32` [Vincamine HCl, reference compound], the LD50 came to 800 mg/kg.
